Test results reported in patent US20250154250A1, “CEACAM5 ADC-ANTI-PD1/PD-L1 COMBINATION THERAPY” (SANOFI, priority 2021, published 2025).
Like-named read-outs stand apart in the source and are kept apart here.

Experiments:
[1] = target: CEACAM1 (Homo sapiens, UniProt P13688)
[2] = target: CEACAM7 (Homo sapiens, UniProt Q14002)
[3] = test system: human primary colon and stomach tumors; conditions: mice bearing human primary colon and stomach tumors; see WO 2014/079886; cited from earlier work
[4] = test system: NSQ NSCLC with tumor CEACAM5 expression
[5] = test system: subcutaneous colon MC38 syngeneic tumor; experiment: subcutaneous colon MC38 syngeneic tumor model; conditions: for tolerability of treatments: doses lower than maximal tolerated dose (MTD); for Drug death (day) / Mean body weight change in % at nadir (day) / Regression CR / Regression PR: n=6
Experimental: […] Control groups were left untreated. The doses of the compounds used are given in mg/kg.
For the evaluation of anti-tumor activity, animals were weighed, and tumors were measured by caliper 2 times weekly. A dosage producing a 20% weight loss at nadir (mean of group) or 10% or more drug deaths, was considered an excessively toxic dosage. Animal body weights included the tumor weights. Tumor volumes were calculated using the formula mass (mm^3)=[length (mm)×width (mm)×width (mm)]/2. The primary efficacy end points are ΔT/ΔC, percent median regression, partial and complete regressions (PR and CR).
Changes in tumor volume for each treated (T) and control (C) are calculated for each tumor by subtracting the tumor volume on the day of first treatment (staging day) from the tumor volume on the specified observation day. The median ΔT is calculated for the treated group and the median ΔC is calculated for the control group. Then the ratio ΔT/ΔC is calculated and expressed as a percentage: ΔT/ΔC=(delta T/delta C)×100.
The dose is considered as therapeutically active when ΔT/ΔC is lower than 40% and very active when ΔT/ΔC is lower than 10%.
% tumor regression is defined as the % of tumor volume decrease in the treated group at a specified observation day compared to its volume on the first day of first treatment.
At a specific time point and for each animal, % regression is calculated. The median % regression is then calculated for the group:
Partial regression (PR): Regressions are defined as partial if the tumor volume decreases to 50% of the tumor volume at the start of treatment.
Complete regression (CR): Complete regression is achieved when tumor volume=0 mm^3 (CR is considered when tumor volume cannot be recorded).
Control groups were left untreated. The doses of the compounds used are given in mg/kg.
See above (Ex 2) for the conditions of anti-tumor activity and toxicity evaluation.

[6] = target: CEACAM6 (Homo sapiens, UniProt P40199)
Sequence of CEACAM6 (P40199 35-320): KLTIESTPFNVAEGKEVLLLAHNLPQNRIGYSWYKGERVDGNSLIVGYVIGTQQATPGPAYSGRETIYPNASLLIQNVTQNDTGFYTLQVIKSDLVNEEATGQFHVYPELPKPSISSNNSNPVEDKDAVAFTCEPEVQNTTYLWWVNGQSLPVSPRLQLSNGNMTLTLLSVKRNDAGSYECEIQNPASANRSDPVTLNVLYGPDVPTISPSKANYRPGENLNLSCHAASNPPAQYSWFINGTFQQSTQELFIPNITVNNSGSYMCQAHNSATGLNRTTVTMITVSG

[7] = target: CEACAM8 (Homo sapiens, UniProt P31997)
Sequence of CEACAM8 (P31997 35-320): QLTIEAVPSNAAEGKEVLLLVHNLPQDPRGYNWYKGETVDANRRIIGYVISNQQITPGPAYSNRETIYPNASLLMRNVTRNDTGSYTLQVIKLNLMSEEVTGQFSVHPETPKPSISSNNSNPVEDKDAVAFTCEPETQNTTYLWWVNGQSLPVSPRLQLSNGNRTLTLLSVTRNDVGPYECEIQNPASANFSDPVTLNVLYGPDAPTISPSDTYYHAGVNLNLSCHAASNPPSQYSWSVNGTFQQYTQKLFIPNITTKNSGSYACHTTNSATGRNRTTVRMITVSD

[8] = huMAb2-3-SPDB-DM4 15 mg/kg IV day 10, alone or + antibody 10 mg/kg IV
[9] = huMAb2-3-SPDB-DM4 25 mg/kg IV day 10, alone or + antibody 10 mg/kg IV
[10] = antibody as single agent 10 mg/kg IV (total 40)

Sequence of CEACAM1 (P13688 35-526): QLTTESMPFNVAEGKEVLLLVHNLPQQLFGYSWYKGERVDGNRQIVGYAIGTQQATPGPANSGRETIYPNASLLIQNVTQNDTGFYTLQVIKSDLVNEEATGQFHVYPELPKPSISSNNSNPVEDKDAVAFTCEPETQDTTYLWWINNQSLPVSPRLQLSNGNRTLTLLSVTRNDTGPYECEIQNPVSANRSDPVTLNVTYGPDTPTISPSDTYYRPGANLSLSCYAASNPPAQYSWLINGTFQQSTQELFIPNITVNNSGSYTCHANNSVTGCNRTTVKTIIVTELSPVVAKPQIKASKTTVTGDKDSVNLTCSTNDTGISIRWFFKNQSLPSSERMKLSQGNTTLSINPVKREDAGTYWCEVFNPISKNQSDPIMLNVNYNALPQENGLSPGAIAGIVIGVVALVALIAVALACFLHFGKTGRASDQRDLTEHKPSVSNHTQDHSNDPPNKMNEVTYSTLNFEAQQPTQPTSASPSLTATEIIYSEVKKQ
Sequence of CEACAM7 (Q14002 36-242): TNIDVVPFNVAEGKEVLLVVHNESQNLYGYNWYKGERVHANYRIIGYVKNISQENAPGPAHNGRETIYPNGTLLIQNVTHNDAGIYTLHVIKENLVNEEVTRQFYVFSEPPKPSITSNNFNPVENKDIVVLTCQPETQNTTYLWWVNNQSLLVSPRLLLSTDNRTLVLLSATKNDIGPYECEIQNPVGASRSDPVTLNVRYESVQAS

Substance: tusamitamab ravtansine
- recognition of CEACAM1 [1]: does not recognize
- recognition of CEACAM7 [2]: does not recognize
- tumor growth in vivo [3]: markedly inhibit tumor growth
- overall response rate per RECIST 1.1 ([4]; 28 heavily pre-treated patients, tumor CEACAM5 expression ≥1% and <5 0%): 7.1%
- overall response rate per RECIST 1.1 ([4]; 64 heavily pre-treated patients, tumor CEACAM5 expression ≥50%): 20.3%
- tolerability of treatments [5]: well tolerated and did not induce toxicity
- Biological comments [5, 8]: Inactive
- Median ΔT/ΔC in % (D 22) [5, 8]: 46%
- Drug death (day) [5, 8]: 0/6
- Mean body weight change in % at nadir (day) [5, 8]: +3.95%
- Regression CR [5, 8]: 0/6
- Regression PR [5, 8]: 0/6
- Biological comments [5, 9]: highly active
- Median ΔT/ΔC in % (D 22) [5, 9]: <0%
- Drug death (day) [5, 9]: 0/6
- Mean body weight change in % at nadir (day) [5, 9]: +1.30%
- Regression CR [5, 9]: 1/6
- Regression PR [5, 9]: 4/6
- recognition of CEACAM6 [6]: does not recognize
- recognition of CEACAM8 [7]: does not recognize

Substance: Atezolizumab [anti-mu/huPD-L1 (Atezolizumab), reference compound]
- Biological comments [5, 10]: Marginally
- Biological comments ([5]; antibody as single agent 10 mg/kg IV (total 40), listed as anti-mu/PD-L1 mAb): marginally active
- Drug death (day) [5, 10]: 0/6
- Mean body weight change in % at nadir (day) [5, 10]: +2.08%
- Regression CR [5, 10]: 1/6
- Regression PR [5, 10]: 1/6
- tolerability of treatments [5]: well tolerated and did not induce toxicity
